# Data reported in ChEMBL document CHEMBL1134573, “Utilization of a peptide lead for the discovery of a novel PTP1B-binding motif” (J Med Chem, 2001).
# Starred links: 1 amine or outer side, 2 acyl side, 3 side chain; linkers in the order of their positions; H or OH if unused. Non-standard residues stand in square brackets, D forms with d. Residues, ends and D or L forms follow the SMILES beside them. X1 = O=C(O)COc1ccc(C[C@H](N[*:1])C(=O)[*:2])cc1C(=O)O; F2Pmp = N[C@@H](Cc1ccc(C(F)(F)P(=O)(O)O)cc1)C(=O)O
# Biological target: T1, Tyrosine-protein phosphatase non-receptor type 1 (Homo sapiens, UniProt P18031)
# T1 sequence (P18031 whole entry): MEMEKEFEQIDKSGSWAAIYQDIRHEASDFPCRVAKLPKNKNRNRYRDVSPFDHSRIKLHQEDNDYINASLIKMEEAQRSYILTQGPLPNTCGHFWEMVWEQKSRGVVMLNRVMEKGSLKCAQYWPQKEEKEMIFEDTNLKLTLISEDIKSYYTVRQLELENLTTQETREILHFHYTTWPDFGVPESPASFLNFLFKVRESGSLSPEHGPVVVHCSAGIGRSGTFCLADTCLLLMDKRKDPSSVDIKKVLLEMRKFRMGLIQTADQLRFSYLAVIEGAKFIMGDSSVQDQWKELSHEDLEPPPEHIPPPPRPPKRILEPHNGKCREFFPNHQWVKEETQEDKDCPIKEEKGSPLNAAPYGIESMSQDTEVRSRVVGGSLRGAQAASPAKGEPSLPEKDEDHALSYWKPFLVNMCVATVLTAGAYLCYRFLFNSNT
# Test: Inhibitory activity against human Protein-tyrosinephosphatase 1B (PTP1B)
Compound,IC50 [mM],Ki [mM]
O=C(O)c1ccc2ccc(C(=O)O)cc2c1,> 3.2,
O=S(=O)(O)c1ccc2c(S(=O)(=O)O)cc(S(=O)(=O)O)cc2c1,> 4,
O=C(O)c1ccc2cc(C(=O)O)ccc2c1,> 4,
O=S(=O)(O)c1ccc2cc(S(=O)(=O)O)ccc2c1,> 4,
COc1ccc2cc(C(=O)O)ccc2c1C(=O)O,20,
CS(=O)(=O)Nc1cccc2cc(S(=O)(=O)O)ccc12,29,
NC(=O)[C@@H](CCC(=O)O)NC(=O)c1ccc2cc(C(F)(F)P(=O)(O)O)ccc2c1,,0.012
O=C(O)COc1cc2ccc(C(=O)O)cc2cc1C(=O)O,,0.25
COC(=O)c1ccc2c(C(=O)O)c(OC)ccc2c1,2.8,
O=C(O)c1ccc2c(C(=O)O)cccc2c1,,0.031
O=S(=O)([O-])c1cccc2c(S(=O)(=O)[O-])cccc12.[Na+].[Na+],28,
CC(=O)N[C@@H](CC(=O)O)C(=O)N[C@@H](C)C(=O)N[C@@H](CC(=O)O)C(=O)N[C@@H](CCC(=O)O)C(=O)N[C@@H](Cc1ccc(OCC(=O)O)c(C(=O)O)c1)C(=O)N[C@@H](CC(C)C)C(N)=O (Ac-DADE[X1]L-NH2),,0.0036
O=C(O)COc1ccc2cc(C(=O)O)ccc2c1,9.4,
NC(=O)[C@H](CCC(=O)O)NC(=O)c1ccc2c(C(=O)O)c(OCC(=O)O)ccc2c1,3.8,
O=C(O)c1ccc2cc(C(F)(F)P(=O)(O)O)ccc2c1,,0.022
O=C(O)c1ccc2cc(OC(F)(F)C(=O)O)ccc2c1,9.4,
O=C(O)c1ccc2c(C(=O)O)c(O)ccc2c1,12,
O=C(O)COc1ccc2cc(C(=O)O)ccc2c1C(=O)O,,0.9
CC(=O)N[C@@H](CC(=O)O)C(=O)N[C@@H](C)C(=O)N[C@@H](CC(=O)O)C(=O)N[C@@H](CCC(=O)O)C(=O)N[C@@H](Cc1ccc(C(F)(F)P(=O)(O)O)cc1)C(=O)N[C@@H](CC(C)C)C(N)=O (Ac-DADE[F2Pmp]L-NH2),,0.0002
